Experiment [1] addresses T1, Type-1 angiotensin II receptor (Homo sapiens) (UniProt P30556).
T1 sequence (whole entry): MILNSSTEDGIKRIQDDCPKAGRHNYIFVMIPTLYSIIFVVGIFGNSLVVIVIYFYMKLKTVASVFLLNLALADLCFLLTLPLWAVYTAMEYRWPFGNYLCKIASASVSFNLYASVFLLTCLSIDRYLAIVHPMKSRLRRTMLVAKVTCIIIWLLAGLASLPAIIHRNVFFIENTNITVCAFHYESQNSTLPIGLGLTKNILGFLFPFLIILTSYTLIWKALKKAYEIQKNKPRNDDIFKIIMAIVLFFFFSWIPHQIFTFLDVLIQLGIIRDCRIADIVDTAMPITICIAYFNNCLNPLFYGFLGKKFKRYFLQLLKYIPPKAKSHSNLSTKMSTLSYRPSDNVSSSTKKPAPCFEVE
Put plainly: Agonist activity at recombinant human AT1 receptor […] at 10 uM by aequorin reporter based assay relative to agonist. It counts as functional.

Experiment [2] deals with T2, 5-hydroxytryptamine receptor 1A (Homo sapiens) (UniProt P08908).
T2 sequence (whole entry): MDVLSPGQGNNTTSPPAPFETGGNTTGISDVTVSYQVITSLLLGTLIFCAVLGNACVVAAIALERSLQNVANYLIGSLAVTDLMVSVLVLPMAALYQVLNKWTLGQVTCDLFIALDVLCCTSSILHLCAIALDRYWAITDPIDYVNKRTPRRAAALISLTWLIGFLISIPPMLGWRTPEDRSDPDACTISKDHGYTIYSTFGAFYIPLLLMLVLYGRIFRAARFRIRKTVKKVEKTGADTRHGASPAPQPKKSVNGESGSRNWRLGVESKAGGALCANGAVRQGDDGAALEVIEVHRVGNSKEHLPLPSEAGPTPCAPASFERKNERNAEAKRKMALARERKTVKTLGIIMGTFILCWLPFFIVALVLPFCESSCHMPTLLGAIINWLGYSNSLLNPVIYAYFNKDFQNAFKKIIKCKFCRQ
Put plainly: Agonist activity at recombinant human 5-HT1A assessed as induction of cAMP levels at 10 uM by HTRF assay relative to agonist. It counts as functional.

Experiment [3] deals with 5-hydroxytryptamine receptor 1B (Homo sapiens) (UniProt P28222). Put plainly: Agonist activity at recombinant human 5-HT1B at 10 uM by GTPgamma[35S] binding-based assay relative to agonist. It counts as functional.
5-hydroxytryptamine receptor 1B (Homo sapiens), sequence (P28222 whole entry): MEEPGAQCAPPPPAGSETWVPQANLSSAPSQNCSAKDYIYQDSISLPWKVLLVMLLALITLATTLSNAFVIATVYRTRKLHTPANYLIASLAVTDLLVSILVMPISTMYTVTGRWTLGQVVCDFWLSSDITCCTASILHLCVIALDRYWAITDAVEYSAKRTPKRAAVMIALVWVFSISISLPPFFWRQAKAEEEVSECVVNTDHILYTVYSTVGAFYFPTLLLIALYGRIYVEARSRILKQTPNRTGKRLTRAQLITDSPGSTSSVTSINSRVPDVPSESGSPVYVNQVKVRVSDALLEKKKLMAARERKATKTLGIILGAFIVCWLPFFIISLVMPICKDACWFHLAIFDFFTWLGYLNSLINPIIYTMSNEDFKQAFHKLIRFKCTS
Experiment [4] has the same target. Put plainly: Antagonist activity at recombinant human 5-HT1B assessed as inhibition of agonist-induced effect at 10 uM by GTPgamma[35S] binding-based assay. It counts as functional.
Experiment [5] has as its target 5-hydroxytryptamine receptor 2A (Homo sapiens) (UniProt P28223). As to the kind of experiment: Agonist activity at recombinant human 5-HT2A at 10 uM by aequorin reporter based assay relative to agonist. It counts as functional.
The target in experiment [6] is T3, 5-hydroxytryptamine receptor 2C (Homo sapiens) (UniProt P28335).
T3 sequence (whole entry): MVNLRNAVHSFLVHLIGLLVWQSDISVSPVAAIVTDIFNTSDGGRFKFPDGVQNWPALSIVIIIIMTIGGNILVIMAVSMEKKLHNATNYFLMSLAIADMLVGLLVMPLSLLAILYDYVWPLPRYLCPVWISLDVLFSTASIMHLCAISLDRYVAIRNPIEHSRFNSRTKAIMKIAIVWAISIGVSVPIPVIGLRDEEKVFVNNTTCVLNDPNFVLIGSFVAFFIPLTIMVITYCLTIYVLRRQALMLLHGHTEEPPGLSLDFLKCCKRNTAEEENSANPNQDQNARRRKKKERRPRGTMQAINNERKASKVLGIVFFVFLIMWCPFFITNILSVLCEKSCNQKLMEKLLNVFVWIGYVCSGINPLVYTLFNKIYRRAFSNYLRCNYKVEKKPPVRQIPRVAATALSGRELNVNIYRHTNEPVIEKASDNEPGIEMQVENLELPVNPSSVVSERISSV
Put plainly: Antagonist activity at recombinant human 5-HT2C assessed as inhibition of agonist-induced effect at 10 uM by aequorin reporter based assay. It counts as functional.

Experiment [7] addresses 5-hydroxytryptamine receptor 6 (Homo sapiens) (UniProt P50406). As to the kind of experiment: Antagonist activity at recombinant human 5-HT6R assessed as inhibition of agonist-induced cAMP induction at 10 uM by HTRF assay. It counts as functional.
Experiment [8] addresses 5-hydroxytryptamine receptor 7 (Homo sapiens) (UniProt P34969). As to the kind of experiment: Agonist activity at recombinant human 5-HT7R assessed as induction of cAMP levels at 10 uM by HTRF assay relative to agonist. It counts as functional.
The target of experiment [9] is T4, Alpha-1B adrenergic receptor (Homo sapiens) (UniProt P35368).
T4 sequence (whole entry): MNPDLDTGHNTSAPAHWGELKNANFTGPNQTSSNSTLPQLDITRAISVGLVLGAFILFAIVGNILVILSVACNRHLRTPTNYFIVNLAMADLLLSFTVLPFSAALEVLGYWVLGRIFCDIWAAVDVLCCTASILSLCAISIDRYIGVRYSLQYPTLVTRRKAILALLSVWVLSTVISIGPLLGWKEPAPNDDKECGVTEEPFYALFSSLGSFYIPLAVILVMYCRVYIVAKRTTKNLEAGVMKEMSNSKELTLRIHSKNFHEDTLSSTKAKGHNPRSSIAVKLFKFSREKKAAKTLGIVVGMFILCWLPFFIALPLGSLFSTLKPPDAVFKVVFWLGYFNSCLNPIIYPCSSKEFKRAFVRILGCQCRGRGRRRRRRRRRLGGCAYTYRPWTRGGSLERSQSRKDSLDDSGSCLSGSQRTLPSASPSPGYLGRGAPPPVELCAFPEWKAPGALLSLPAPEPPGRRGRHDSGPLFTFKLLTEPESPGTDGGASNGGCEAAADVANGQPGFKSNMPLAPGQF
Put plainly: Agonist activity at recombinant human alpha-1b adrenergic receptor […] at 10 uM by aequorin reporter based assay relative to agonist. It counts as functional.

In experiment [10] the target is D(2) dopamine receptor (Homo sapiens) (UniProt P14416). Put plainly: Antagonist activity at recombinant human dopamine D2L receptor assessed as inhibition of agonist-induced effect at 10 uM by GTPgamma[35S] binding-based assay.
D(2) dopamine receptor (Homo sapiens), sequence (P14416 whole entry): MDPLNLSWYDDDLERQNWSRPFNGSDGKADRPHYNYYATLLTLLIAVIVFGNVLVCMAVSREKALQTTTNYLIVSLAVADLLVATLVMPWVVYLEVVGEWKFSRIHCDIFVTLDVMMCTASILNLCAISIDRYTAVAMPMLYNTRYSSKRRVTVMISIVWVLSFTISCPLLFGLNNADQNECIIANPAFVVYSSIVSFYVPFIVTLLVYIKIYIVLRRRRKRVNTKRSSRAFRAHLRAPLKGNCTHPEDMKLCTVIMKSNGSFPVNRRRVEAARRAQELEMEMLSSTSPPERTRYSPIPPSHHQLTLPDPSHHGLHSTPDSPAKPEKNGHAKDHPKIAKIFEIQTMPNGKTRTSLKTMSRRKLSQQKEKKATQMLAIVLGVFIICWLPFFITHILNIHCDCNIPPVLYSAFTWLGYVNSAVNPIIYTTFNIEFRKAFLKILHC
Experiment [11] addresses Histamine H1 receptor (Homo sapiens) (UniProt P35367). Put plainly: Agonist activity at recombinant human histamine H1 receptor at 10 uM by aequorin reporter based assay relative to agonist. It counts as functional.
For experiment [12], the target named is Histamine H2 receptor (Homo sapiens) (UniProt P25021). As to the kind of experiment: Agonist activity at recombinant human histamine H2 receptor assessed as induction of cAMP levels at 10 uM by HTRF assay relative to agonist. It counts as functional.
Histamine H2 receptor (Homo sapiens), sequence (P25021 whole entry): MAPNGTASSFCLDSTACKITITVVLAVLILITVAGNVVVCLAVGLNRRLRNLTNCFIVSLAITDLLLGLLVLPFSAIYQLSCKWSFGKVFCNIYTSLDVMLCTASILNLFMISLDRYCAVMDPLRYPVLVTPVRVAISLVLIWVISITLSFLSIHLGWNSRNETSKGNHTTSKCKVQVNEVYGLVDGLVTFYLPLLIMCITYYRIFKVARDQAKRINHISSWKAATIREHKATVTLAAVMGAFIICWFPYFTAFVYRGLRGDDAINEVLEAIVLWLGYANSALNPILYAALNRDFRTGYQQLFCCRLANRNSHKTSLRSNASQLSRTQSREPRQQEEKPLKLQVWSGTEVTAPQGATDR
Experiment [13] has the same target. As to the kind of experiment: Antagonist activity at recombinant human histamine H2 receptor assessed as inhibition of agonist-induced cAMP levels at 10 uM by HTRF assay. It counts as functional.
Experiment [14] concerns the target Muscarinic acetylcholine receptor M3 (Homo sapiens) (UniProt P20309). As to the kind of experiment: Antagonist activity at recombinant human muscarinic M3 receptor assessed as inhibition of agonist-induced effect at 10 uM by aequorin reporter based assay. It counts as functional.
In experiment [15] the target is Vasopressin V1a receptor (Homo sapiens) (UniProt P37288). As to the kind of experiment: Agonist activity at recombinant human V1A receptor at 10 uM by aequorin reporter based assay relative to agonist. It counts as functional.
Vasopressin V1a receptor (Homo sapiens), sequence (P37288 whole entry, looked up): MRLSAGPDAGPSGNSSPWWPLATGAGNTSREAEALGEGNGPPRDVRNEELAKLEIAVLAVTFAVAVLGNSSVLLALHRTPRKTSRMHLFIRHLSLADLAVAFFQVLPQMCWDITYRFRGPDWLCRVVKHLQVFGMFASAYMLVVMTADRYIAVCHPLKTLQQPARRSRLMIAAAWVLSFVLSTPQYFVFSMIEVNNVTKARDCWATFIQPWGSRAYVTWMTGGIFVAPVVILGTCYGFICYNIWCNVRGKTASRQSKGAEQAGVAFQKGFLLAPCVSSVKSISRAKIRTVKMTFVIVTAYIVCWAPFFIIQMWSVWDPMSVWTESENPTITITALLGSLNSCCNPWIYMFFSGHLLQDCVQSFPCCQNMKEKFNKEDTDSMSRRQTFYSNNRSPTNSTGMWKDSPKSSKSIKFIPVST

The structures appear in SMILES notation.

From ChEMBL document CHEMBL4130363, “Synthesis and pharmacological evaluation of benzamide derivatives as potent and selective sigma-1 protein ligands” (Eur J Med Chem, 2017) come the findings set out here.

5-hydroxytryptamine receptor 2A (Homo sapiens), sequence (P28223 whole entry): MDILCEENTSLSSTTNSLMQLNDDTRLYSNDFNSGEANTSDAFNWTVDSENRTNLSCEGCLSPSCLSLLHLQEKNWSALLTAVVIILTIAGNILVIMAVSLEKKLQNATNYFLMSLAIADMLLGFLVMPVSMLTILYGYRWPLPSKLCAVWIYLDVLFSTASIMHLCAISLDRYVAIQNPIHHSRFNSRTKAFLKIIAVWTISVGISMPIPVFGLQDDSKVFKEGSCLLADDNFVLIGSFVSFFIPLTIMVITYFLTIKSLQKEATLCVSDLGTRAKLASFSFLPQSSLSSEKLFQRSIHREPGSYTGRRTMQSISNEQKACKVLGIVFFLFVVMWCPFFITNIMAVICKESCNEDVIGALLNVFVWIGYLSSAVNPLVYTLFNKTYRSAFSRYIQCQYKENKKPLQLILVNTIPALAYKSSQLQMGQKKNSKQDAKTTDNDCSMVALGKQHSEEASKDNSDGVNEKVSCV
5-hydroxytryptamine receptor 6 (Homo sapiens), sequence (P50406 whole entry): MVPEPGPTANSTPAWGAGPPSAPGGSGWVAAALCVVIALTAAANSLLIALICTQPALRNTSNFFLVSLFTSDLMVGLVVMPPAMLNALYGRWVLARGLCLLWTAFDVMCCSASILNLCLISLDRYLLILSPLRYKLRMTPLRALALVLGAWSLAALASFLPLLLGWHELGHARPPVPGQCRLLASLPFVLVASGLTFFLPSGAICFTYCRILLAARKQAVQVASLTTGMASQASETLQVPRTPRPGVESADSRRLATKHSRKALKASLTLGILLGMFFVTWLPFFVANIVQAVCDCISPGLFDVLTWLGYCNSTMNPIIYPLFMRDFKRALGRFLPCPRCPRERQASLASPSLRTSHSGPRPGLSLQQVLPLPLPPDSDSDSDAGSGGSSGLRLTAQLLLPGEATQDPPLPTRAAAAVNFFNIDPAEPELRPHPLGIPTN
5-hydroxytryptamine receptor 7 (Homo sapiens), sequence (P34969 whole entry): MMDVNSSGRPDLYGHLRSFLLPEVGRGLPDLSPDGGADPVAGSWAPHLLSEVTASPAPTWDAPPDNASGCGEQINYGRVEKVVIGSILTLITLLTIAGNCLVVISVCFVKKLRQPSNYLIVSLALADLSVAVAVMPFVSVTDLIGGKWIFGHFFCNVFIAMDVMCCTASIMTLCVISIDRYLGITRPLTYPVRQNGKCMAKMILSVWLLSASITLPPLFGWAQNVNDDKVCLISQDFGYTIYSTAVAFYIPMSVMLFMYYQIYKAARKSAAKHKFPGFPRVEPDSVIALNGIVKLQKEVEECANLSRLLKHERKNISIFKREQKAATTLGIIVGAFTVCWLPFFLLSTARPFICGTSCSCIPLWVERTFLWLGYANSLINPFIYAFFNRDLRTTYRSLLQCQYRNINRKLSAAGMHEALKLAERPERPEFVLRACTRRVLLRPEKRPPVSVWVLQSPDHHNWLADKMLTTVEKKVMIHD
Histamine H1 receptor (Homo sapiens), sequence (P35367 whole entry): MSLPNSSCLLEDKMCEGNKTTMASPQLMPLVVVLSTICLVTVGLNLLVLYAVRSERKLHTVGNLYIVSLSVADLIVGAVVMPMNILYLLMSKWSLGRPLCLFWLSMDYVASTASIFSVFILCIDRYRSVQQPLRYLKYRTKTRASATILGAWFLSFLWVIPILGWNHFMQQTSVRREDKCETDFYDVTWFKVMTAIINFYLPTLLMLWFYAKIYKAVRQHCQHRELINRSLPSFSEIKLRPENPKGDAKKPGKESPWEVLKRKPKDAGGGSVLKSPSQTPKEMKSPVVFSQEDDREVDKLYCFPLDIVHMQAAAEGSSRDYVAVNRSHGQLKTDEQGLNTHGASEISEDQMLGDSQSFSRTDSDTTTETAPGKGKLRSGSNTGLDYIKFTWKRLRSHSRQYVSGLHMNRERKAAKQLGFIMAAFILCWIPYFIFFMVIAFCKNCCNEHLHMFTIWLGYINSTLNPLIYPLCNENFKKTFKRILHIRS
Muscarinic acetylcholine receptor M3 (Homo sapiens), sequence (P20309 whole entry, looked up): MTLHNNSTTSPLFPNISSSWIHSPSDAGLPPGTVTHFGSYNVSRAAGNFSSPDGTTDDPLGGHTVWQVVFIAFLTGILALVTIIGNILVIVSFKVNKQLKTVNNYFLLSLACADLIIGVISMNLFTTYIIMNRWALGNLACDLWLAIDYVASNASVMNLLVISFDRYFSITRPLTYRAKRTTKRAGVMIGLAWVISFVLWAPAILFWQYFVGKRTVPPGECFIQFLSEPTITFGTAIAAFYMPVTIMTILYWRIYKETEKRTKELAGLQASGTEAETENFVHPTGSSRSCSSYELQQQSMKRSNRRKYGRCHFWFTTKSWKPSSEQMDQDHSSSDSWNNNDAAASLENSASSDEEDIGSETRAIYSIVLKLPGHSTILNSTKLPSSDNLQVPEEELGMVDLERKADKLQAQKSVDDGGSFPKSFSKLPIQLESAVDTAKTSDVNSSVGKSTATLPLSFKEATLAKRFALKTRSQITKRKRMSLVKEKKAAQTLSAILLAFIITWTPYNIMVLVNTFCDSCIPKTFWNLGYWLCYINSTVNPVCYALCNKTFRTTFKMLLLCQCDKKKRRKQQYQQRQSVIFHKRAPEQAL

Take `CN(CCCNC(=O)c1cccc(Br)c1)Cc1ccccc1`: the Activity is 0% in experiment [1]; -4% in experiment [2]; 1% in experiment [3]; 3% in experiment [5]; 21% in [8]; -1% in [9]. Also, the values for the Activity in experiment [11], in [12] and in experiment [15] were 35%, -3% and -1%, respectively. Besides, the inhibition in [4] was 35%; in experiment [6], 54%; in experiment [7] it was -2%; in experiment [10], 49%; in experiment [13], 9%; in experiment [14], 43%.
Take `CN(CCCNC(=O)c1ccc(C(F)(F)F)cc1)Cc1ccccc1`: the Activity in [1] was 0%; in experiment [2], -5%; in experiment [3], -1%; in experiment [5], 1%; in [8], 33%; in experiment [9] it was -1%. For the same molecule, the Activity in experiment [11] was 0%; in experiment [12] it was -7%; in [15], 0%. Further, the inhibition came to 11% in experiment [4]; 24% in experiment [6]; 1% in experiment [7]; 30% in experiment [10]; 6% in [13]; 36% in experiment [14].
As to `CCCc1ccc(C(=O)NCCCN(C)Cc2ccccc2)cc1`, the Activity in experiment [1] was 0%; in [2] it was -4%; in experiment [3], 55%; in [5], 0%; in experiment [8], 25%; in experiment [9], -1%. The Activity in experiment [11] is 0%; in experiment [12] it was 1%; in experiment [15] it was 0%. For the same molecule, the inhibition in experiment [4] was -8%; in experiment [6], 94%; in experiment [7] it was 1%; in [10], 22%; in experiment [13], 8%; in experiment [14], 41%.
Turning to `CN(CCNC(=O)c1ccc([N+](=O)[O-])cc1)Cc1ccccc1`, the Activity was 0% in [1]; 4% in experiment [2]; -10% in experiment [3]; 0% in experiment [5]; 26% in experiment [8]; 0% in experiment [9]. The Activity was 0% in experiment [11], 9% in experiment [12] and 0% in [15]. For the same molecule, the inhibition came to 7% in experiment [4]; 80% in experiment [6]; 3% in [7]; 30% in [10]; 21% in experiment [13]; 21% in experiment [14].
On to `CN(CCNC(=O)c1ccc(C#N)cc1)Cc1ccccc1`, for which the Activity is 0% in experiment [1]; 4% in [2]; -12% in experiment [3]; 0% in [5]; 2% in experiment [8]; 0% in [9]. For the same molecule, the Activity in experiment [11] was 0%; in experiment [12], -3%; in experiment [15], 0%. The inhibition in experiment [4] is 17%; in [6], 34%; in experiment [7], -2%; in [10], 55%; in experiment [13], 25%; in experiment [14], 17%.
Consider `CN(CCCNC(=O)c1ccc(Br)cc1)Cc1ccccc1`, for which the Activity in experiment [1] came to 1%; in experiment [2] it was 0%; in experiment [3] it was 10%; in experiment [5], 1%; in experiment [8], 9%; in experiment [9], 0%. The values for the Activity in experiment [11], in [12] and in experiment [15] were 1%, -8% and 1%, respectively. For the same molecule, the inhibition in experiment [4] is 0%; in experiment [6], 34%; in experiment [7], -1%; in [10], 31%; in experiment [13] it was 6%; in experiment [14], 11%.
As to `CN(CCNC(=O)c1ccc(Cl)cc1)Cc1ccccc1`, the Activity in [1] was 0%; in experiment [2], 3%; in [3], 4%; in experiment [5] it was 16%; in experiment [8] it was 46%; in [9], -1%. For the same molecule, the Activity is 0% in [11], -7% in [12] and 0% in experiment [15]. In addition, the inhibition in experiment [4] was 1%; in [6] it was 92%; in [7], -3%; in experiment [10], 90%; in experiment [13], 13%; in [14], 35%.
Consider `COc1cccc(C(=O)NCCCN(C)Cc2ccccc2)c1`, for which the Activity in [1] is 0%; in [2], 0%; in experiment [3], -12%; in [5], 1%; in experiment [8], -5%; in [9], 0%. Moreover, the figures for the Activity in experiment [11], in experiment [12] and in experiment [15] were 14%, 10% and 0%, respectively. Moreover, the inhibition in experiment [4] is 13%; in experiment [6], 36%; in experiment [7], -1%; in experiment [10] it was 22%; in experiment [13], 16%; in experiment [14], 2%.
